Values quoted from earlier work in PMC4412765 (Chemical biology & drug design, 2014).

System: S. aureus
Conditions: cited from earlier work

C(=C\c1cc2ccc(C3=NCCN3)cc2[nH]1)/c1cc2ccc(C3=NCCN3)cc2[nH]1 [BPH-1417]
in vitro activity against S. aureus: potent
